Measurements: US20060030603A1, “Novel aryl urea analogs and use thereof as antibacterial agents” (priority 2004, published 2006)
Values after ≈ are worked out from the molar mass of the structure shown. Like-named read-outs stand apart in the source and are kept apart here.

Assays:
[1] = system: P. vulgaris ATCC 8427; assay: MIC assay, P. vulgaris; type: cell-based; details: Proteus vulgaris, ATCC8427; read-out: MIC P. vulgaris ATCC 8427
Procedure: (§1) In vitro structure/activity relationship (“SAR”) tests were performed according to the following procedure: MIC assays were carried out in a 150 μL volume in duplicate in 96-well clear flat-bottom plates. The bacterial suspension from an overnight culture growth in the appropriate medium was added to a solution of test compound in 0.5% DMSO in water. Final bacterial inoculum was approximate 10^3-10^4 CFU/well. The percentage growth of the bacteria in the test wells relative to that observed for a control well containing no compound was determined by measuring absorbance at 595 nm (A595) after 20-24 h at 37° C. […] The bacterial strains used for the assays include S. aureus ATCC 13709, S. pyogenes ATCC 49399, E. faecalis ATCC 29212, E. faecium ATCC 6569, E. coli ATCC 25922, K. pneumoniae ATCC 13383, P. vulgaris ATCC 8427, P. aeruginosa ATCC 25416. The results of the in vitro SAR tests are in Tables 1-3.

[2] = MIT HUH-7 CC50 48h cytotoxicity; type: cell-based; details: human, HUH-7 cells; HUH-7, 48h
[3] = system: S. aureus ATCC 13709; assay: MIC assay, S. aureus; type: cell-based; details: Staphylococcus aureus, ATCC13709
Procedure: as §1

[4] = log P; type: physicochemical
[5] = system: P. aeruginosa ATCC 25416; assay: MIC assay, P. aeruginosa; type: cell-based; details: Pseudomonas aeruginosa, ATCC25416; read-out: MIC P. aeruginosa ATCC 25416
Procedure: as §1

[6] = system: S. aureus (ATCC 13709); assay: Mouse Protection Assay (lethal murine model of bacterial infection); type: in vivo, ICR-CD-1 female mice; details: 14b HCl salt
Procedure: The in vivo tests were preformed according to the following procedure:
Mouse Protection Assay: 10 mice/dose group (ICR-CD-1 female mice 18-20 grams, Charles River) were infected with a lethal dose (10^6 CFU/mouse) of S. aureus (ATCC 13709) suspended in 7.5% hog Gastric Mucin IP. The infected animals were treated at 1 h and 3 h post infection with either compound 12e (lactate salt) from 37 mg/kg down to 2.3 mg/kg or compound 14b (HCl salt) from 75 mg/kg down to 2.3 mg/kg (0.1 mL/mouse). The positive control drug was Vancomycin (Eli Lilly) 1 mg/kg.

[7] = system: E. faecium ATCC 6569; assay: MIC assay, E. faecium; type: cell-based; details: Enterococcus faecium, ATCC6569; read-out: MIC E. faecium ATCC 6569
Procedure: as §1

[8] = system: S. pyogenes ATCC 49399; assay: MIC assay, S. pyogenes; type: cell-based; details: Streptococcus pyogenes, ATCC49399; read-out: MIC S. pyogenes ATCC 49399
Procedure: as §1

[9] = system: E. coli ATCC 25922; assay: MIC assay, E. coli; type: cell-based; details: Escherichia coli, ATCC25922; read-out: MIC E. coli ATCC 25922
Procedure: as §1

[10] = Acute Toxicity Study (maximum tolerated dose); type: in vivo; details: observed seven days; for toxic dose via the IP route: intraperitoneal, 150 down to 19 mg/kg tested; for survival in the subQ group: subcutaneous, 150 down to 19 mg/kg, compound appeared to precipitate at injection site
Procedure: Acute Toxicity Study: The maximum tolerated dose for either compound 12e or 14b was determined by administering the compound from 150 mg/kg down to 19 mg/kg given either intraperitoneally (IP) or subcutaneously (subQ). […] On autopsy some of the compound appeared to precipitate at the injection site thereby reducing the effective dose. Via the IP route compound 12e was toxic down to 37 mg/kg and compound 14b was only toxic at 150 mg/kg.

[11] = system: E. faecalis ATCC 29212; assay: MIC assay, E. faecalis; type: cell-based; details: Enterococcus faecalis, ATCC29212; read-out: MIC E. faecalis ATCC 29212
Procedure: as §1

[12] = system: K. pneumoniae ATCC 13383; assay: MIC assay, K. pneumoniae; type: cell-based; details: Klebsiella pneumoniae, ATCC13383; read-out: MIC K. pneumoniae ATCC 13383
Procedure: as §1

[13] = Table 2, benzylamino group modified analogs, read-out: MIC S. aureus
[14] = Table 4, read-out: MIC S. aureus ATCC 13709
[15] = 2.3 × 2 mg/Kg, 1 h and 3 h post infection, one week, 12e lactate salt
[16] = 4.7 × 2 mg/Kg, 1 h and 3 h post infection, one week, 12e lactate salt
[17] = 9.4 × 2 mg/Kg, 1 h and 3 h post infection, one week, 12e lactate salt
[18] = 18.8 × 2 mg/Kg, 1 h and 3 h post infection, one week, 12e lactate salt
[19] = 37.5 × 2 mg/Kg, 1 h and 3 h post infection, one week, 12e lactate salt

Compound	MIC [1]	CC50 at 48 h [2]	MIC [3, 13]	MIC [3, 14]	logP [4]	MIC [5]	Mice Alive/Total [6, 15]	Mice Alive/Total [6, 16]	Mice Alive/Total [6, 17]	Mice Alive/Total [6, 18]	Mice Alive/Total [6, 19]	Mice Alive/Total ([6]; 75 × 2 mg/Kg, treated 1 h and 3 h post infection, observed one week)	MIC [7]	MIC [8]	MIC [9]	toxic dose via the IP route [10]	survival in the subQ group [10]	MIC [11]	MIC [12]
CN(CCCNC(=O)Nc1ccc(C(F)(F)F)cc1)CCCOc1ccc(Br)cc1Br [14b, 1-(3-{[3-(2,4-Dibromo-phenoxy)-propyl]-methyl-amino}-propyl)-3-(4-trifluoromethyl-phenyl)-urea]	12 to 25 µM (≈ 6.81 to 14.2 µg/mL)	> 100 µM	3 to 6 µM (≈ 1.7 to 3.4 µg/mL)	3 to 6 µM (≈ 1.7 to 3.4 µg/mL)	5.3	> 100 µM	3/10	4/10	6/10	6/10	7/10	4/10	> 100 µM	3 to 6 µM (≈ 1.7 to 3.4 µg/mL)	12 to 25 µM (≈ 6.81 to 14.2 µg/mL)	150 mg/kg	all animals survived at all doses tested	3 to 6 µM (≈ 1.7 to 3.4 µg/mL)	3 to 6 µM (≈ 1.7 to 3.4 µg/mL)
CCOc1c(Br)cc(Br)cc1CNCCCNC(=O)Nc1ccc(C(F)(F)F)cc1 [12s, 1-[3-(3,5-Dibromo-2-ethoxy-benzylamino)-propyl]-3-(4-trifluoromethyl-phenyl)-urea]	12 to 25 µM (≈ 6.64 to 13.8 µg/mL)	50 to 100 µM	3 to 6 µM (≈ 1.66 to 3.32 µg/mL)	3 to 6 µM (≈ 1.66 to 3.32 µg/mL)	5.1	> 100 µM	–	–	–	–	–	–	6 to 12 µM (≈ 3.32 to 6.64 µg/mL)	3 to 6 µM (≈ 1.66 to 3.32 µg/mL)	12 to 25 µM (≈ 6.64 to 13.8 µg/mL)	–	–	6 to 12 µM (≈ 3.32 to 6.64 µg/mL)	3 to 6 µM (≈ 1.66 to 3.32 µg/mL)
O=C(NCCCNCc1ccc(-c2ccccc2)cc1)Nc1ccc(C(F)(F)F)cc1 [12e, 1-{3-[(Biphenyl-4-ylmethyl)-amino]-propyl}-3-(4-trifluoromethyl-phenyl)-urea]	12 to 25 µM (≈ 5.13 to 10.7 µg/mL)	25 to 50 µM	3 to 6 µM (≈ 1.28 to 2.56 µg/mL)	3 to 6 µM (≈ 1.28 to 2.56 µg/mL)	4.91	> 100 µM	0/10	2/10	4/10	3/10	3/10	–	> 100 µM	3 to 6 µM (≈ 1.28 to 2.56 µg/mL)	6 to 12 µM (≈ 2.56 to 5.13 µg/mL)	≥ 37 mg/kg	all animals survived at all doses tested	> 100 µM	6 to 12 µM (≈ 2.56 to 5.13 µg/mL)
O=C(NCCCNCc1ccc(Oc2ccccc2)cc1)Nc1ccc(C(F)(F)F)cc1 [12h, 1-[3-(4-Phenoxy-benzylamino)-propyl]-3-(4-trifluoromethyl-phenyl)-urea]	12 to 25 µM (≈ 5.32 to 11.1 µg/mL)	12.5 to 25 µM	3 to 6 µM (≈ 1.33 to 2.66 µg/mL)	3 to 6 µM (≈ 1.33 to 2.66 µg/mL)	4.77	> 100 µM	–	–	–	–	–	–	> 100 µM	3 to 6 µM (≈ 1.33 to 2.66 µg/mL)	6 to 12 µM (≈ 2.66 to 5.32 µg/mL)	–	–	3 to 6 µM (≈ 1.33 to 2.66 µg/mL)	6 to 12 µM (≈ 2.66 to 5.32 µg/mL)
